According to article PMC12839014, “Machine Learning-Based Virtual Screening for the Identification of Novel CDK-9 Inhibitors” (Biomolecules, 2025):
Like-named read-outs stand apart in the source and are kept apart here. Blank lines part the entries; values can stand above or below the compound they belong to.

Experiments:
HeLa cells = assay: Cell viability assay (SRB), HeLa; assay type: cell-based; conditions: 72 h; for cell viability (antiproliferative effect): single agent, SRB
Experimental: (§1) HeLa, MCF-7, and MDA-MB-231 cells were seeded in triplicate into 96-well plates at densities of 1500, 3500, and 3000 cells per well, respectively, and allowed to adhere for 24 h. After 72 h of incubation, cells were fixed with 10% (v/v) trichloroacetic acid (TCA) and subsequently stained with 0.4% (w/v) sulforhodamine B (SRB) dissolved in 1% (v/v) acetic acid. Cell viability was quantified and expressed as a percentage relative to untreated control cells, which were normalized to 100%. Data represent the mean ± standard deviation (SD) from three independent experiments (n = 3). Statistical significance was determined using one-way ANOVA or Student’s t-test, followed by appropriate multiple-comparison post hoc tests to evaluate differences between experimental groups.

MCF-7 cells = assay: Cell viability assay (SRB), MCF-7; assay type: cell-based; conditions: 72 h; for cell viability (antiproliferative effect): MCF-7, single agent, SRB
Experimental: as §1

MDA-MB-231 cells = assay: Cell viability assay (SRB), MDA-MB-231; assay type: cell-based; conditions: 72 h; for cell viability (antiproliferative effect): MDA-MB-231, single agent, SRB
Experimental: as §1

[1] = tested on: γH2AX Ser139 foci in HeLa cells; assay: Immunofluorescence analysis of γ-H2AX foci; assay type: cell-based; conditions: 1 h pretreatment with compound 1, then 2 h CPT, combination vs CPT alone
Experimental: (§2) HeLa cells were fixed in 4% paraformaldehyde and subsequently permeabilized with 0.2% Triton X-100. Blocking was performed with 1% bovine serum albumin (BSA) for 10 min at room temperature. Cells were then incubated for 1 h at RT with primary antibodies targeting: γH2AX Ser139 (1:200, ab2893, Abcam, Cambridge, UK) or pRPA32 S4/8 (1:200, A300-245A, Bethyl Laboratories, Montgomery, TX, USA). Corresponding secondary antibody conjugated with AlexaFluor 647 donkey anti-rabbit IgG (H + L) was applied. Samples were mounted using ProLong™ Gold Antifade Mountant with DAPI (Thermo Fisher Scientific). High-resolution immunofluorescence imaging was performed on a Zeiss LSM 900 Airyscan2 confocal microscope equipped with a Plan-Apochromat 63×/1.4 NA oil immersion objective. Image acquisition and processing utilized Zen 3.9 software Zeiss, Jena, Germany). Quantification of fluorescent foci per nucleus was conducted using Fiji (ImageJ) software, version 2.14.0/1.54f.
Figure S3. […] Thirty cells were evaluated per condition. Data are expressed as the mean ± standard deviation (SD) from three separate experiments. Statistical signiﬁcance was determined using Welch’s corrected Student’s t-test to account for potential variance diﬀerences between samples. **** p < 0.0001. […]

[2] = tested on: HeLa cells transfected with siCTR or siCDK9; assay: Cell viability in HeLa cells with siRNA-mediated CDK9 knockdown; assay type: cell-based; conditions: 100 nM siCDK9 vs siCTR, 72 h treatment
Experimental: as §1
Consistently, when CDK9 is depleted, the overall impact of compound 1 is reduced.
Figure S2. HeLa cells were transfected with 100 nM of siCTR or siCDK9. After 24 hours of incubation, the cells were plated for the indicated treatment time points and incubated for an additional 24 hours, followed by treatment with the speciﬁed drug concentrations for another 72 hours. Results are presented as the mean ± SD from three independent experiments. *p< […], **p< 0.01, *** p < 0.001 and **** p < 0.0001.
(1 picture or pasted object on this page, not shown here)

CDK9/cyclin T1 = target: T1, CDK9/cyclin T1 (Homo sapiens, UniProt P50750); assay: ADAPTA kinase assay (TR-FRET), CDK9 inhibition; assay type: biochemical; conditions: for IC50: CDK9 inhibitory activity
T1 construct: purchased Thermo Fisher Scientific, Madison, WI, USA
T1 sequence (P50750 whole entry): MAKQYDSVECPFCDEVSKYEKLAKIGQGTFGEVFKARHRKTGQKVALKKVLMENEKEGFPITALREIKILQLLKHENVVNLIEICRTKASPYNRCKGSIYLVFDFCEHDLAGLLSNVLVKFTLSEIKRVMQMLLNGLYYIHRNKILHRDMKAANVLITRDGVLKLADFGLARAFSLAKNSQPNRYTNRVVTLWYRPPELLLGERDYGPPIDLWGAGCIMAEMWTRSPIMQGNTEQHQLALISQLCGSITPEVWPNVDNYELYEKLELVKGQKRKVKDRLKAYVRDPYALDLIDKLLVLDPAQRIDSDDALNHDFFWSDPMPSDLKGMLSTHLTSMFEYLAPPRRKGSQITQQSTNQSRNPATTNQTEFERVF
T1 sequence (O60563 whole entry partner): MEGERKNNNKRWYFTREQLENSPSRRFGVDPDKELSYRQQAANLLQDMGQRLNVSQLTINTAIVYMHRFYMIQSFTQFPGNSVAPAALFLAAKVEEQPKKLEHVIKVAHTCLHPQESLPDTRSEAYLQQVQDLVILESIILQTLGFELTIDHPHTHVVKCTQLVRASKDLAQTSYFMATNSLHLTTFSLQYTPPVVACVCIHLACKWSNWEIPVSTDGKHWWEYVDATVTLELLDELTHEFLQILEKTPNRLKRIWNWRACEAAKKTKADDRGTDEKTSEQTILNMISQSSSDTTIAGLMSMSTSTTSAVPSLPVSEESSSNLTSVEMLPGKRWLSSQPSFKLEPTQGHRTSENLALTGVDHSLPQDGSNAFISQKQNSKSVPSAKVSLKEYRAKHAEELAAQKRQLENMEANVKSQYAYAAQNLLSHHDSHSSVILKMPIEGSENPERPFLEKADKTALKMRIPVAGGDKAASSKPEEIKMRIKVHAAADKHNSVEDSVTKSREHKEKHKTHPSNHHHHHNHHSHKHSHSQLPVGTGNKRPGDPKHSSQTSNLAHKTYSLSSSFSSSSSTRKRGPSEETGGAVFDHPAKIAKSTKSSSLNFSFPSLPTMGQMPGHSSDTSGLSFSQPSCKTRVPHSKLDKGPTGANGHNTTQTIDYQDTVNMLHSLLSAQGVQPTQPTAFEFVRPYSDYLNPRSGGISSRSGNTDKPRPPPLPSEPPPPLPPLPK
Experimental: The inhibitory activity of the compounds identified by the VS was evaluated against CDK9/cyclin T1 using the fluorescence-based ADAPTA kinase assay (Thermo Fisher Scientific, Madison, WI, USA). The assay quantifies ADP generated during the kinase reaction through a competitive immunoassay employing a TR-FRET detection system. In the presence of an inhibitor, ADP formation by the kinase is reduced, leading to preservation of the antibody–tracer complex and a corresponding increase in the TR-FRET signal. Inhibitory potency was expressed as IC50 values, determined from logistic dose–response curves with 10 concentration points, each representing the average of two independent experiments.

[3] = tested on: pRPA32 S4/8 in HeLa cells; assay: Immunofluorescence analysis of pRPA32 S4/8 (HR activity); assay type: cell-based; conditions: 1 h pretreatment with compound 1 or DMSO, then 2 h CPT
Experimental: as §2
Figure S4. A) HeLa cells were pre-treated with compound 1 (reported as Cmp 1) or DMSO for one hour, followed by incubation with CPT. Thirty cells per condition were analyzed from three independent experiments, with results reported as the standard deviation (SD). Statistical analysis was performed using Welch’s corrected Student’s t-test to account for heteroscedasticity in the data. […]

[4] = 10 concentration points, average of two independent experiments, read-out: Experimental IC50

IC50 (CDK9/cyclin T1; [4]): 16.8 µM | IC50 (CDK9/cyclin T1; read-out: IC50): < 50 µM
SMILES: CCOC(=O)c1sc(NC(=S)Nc2c(C)n(C)n(-c3ccccc3)c2=O)c(C(=O)OCC)c1C [Compound 2]
cell viability (antiproliferative effect) (HeLa cells): less effective at comparable concentrations | cell viability (antiproliferative effect) (MCF-7 cells): less effective at comparable concentrations | cell viability (antiproliferative effect) (MDA-MB-231 cells): less effective at comparable concentrations

IC50 (CDK9/cyclin T1; [4]): 107 µM
SMILES: COc1cc2c(c3oc(=O)c(CCC(=O)NC4C=CS(=O)(=O)C4)c(C)c13)CCC(C)(C)O2 (centres unmarked) [Compound 5]

IC50 (CDK9/cyclin T1; [4]): 133 µM
SMILES: O=S(=O)(N1CCCC1)N1CCN(c2ncnc3scc(-c4ccc(F)cc4)c23)CC1 [Compound 6]

IC50 (CDK9/cyclin T1; [4]): > 133 µM
SMILES: Cc1cc(N2CCC3(NC(=O)c4cccc(C(C)C)n4)CCCC23)nc(CO)n1 (centres unmarked) [Compound 8]

IC50 (CDK9/cyclin T1; [4]): > 133 µM
SMILES: Cc1cc(NC2CCN(c3ncccc3F)C2)nc(C)n1 (centres unmarked) [Compound 10]

IC50 (CDK9/cyclin T1; [4]): > 133 µM
SMILES: COc1ccc(OC)c(-c2cc(C(=O)NCC3CCN(c4ncccn4)CC3)n(C)n2)c1 [Compound 11]

IC50 (CDK9/cyclin T1; [4]): > 133 µM
SMILES: Nc1c2c(-c3ccccc3Cl)nc(N3CCCC3)nc2nn1-c1ccc(F)cc1 [Compound 12]

IC50 (CDK9/cyclin T1; [4]): > 133 µM
SMILES: CCC(Sc1nc2sc(C(=O)N(C)C)c(C)c2c(=O)n1CCc1ccccc1)C(=O)NC1CCCCC1 (centres unmarked) [Compound 13]

The next lines start with the compound.

SMILES: CC[C@@]1(O)C(=O)OCc2c1cc1n(c2=O)Cc2cc3ccccc3nc2-1 [CPT, Camptothecin, reference compound]
cell viability (antiproliferative effect) (HeLa cells): detectable cytotoxic effect | cell viability (antiproliferative effect) (MCF-7 cells): detectable cytotoxic effect | cell viability (antiproliferative effect) (MDA-MB-231 cells): detectable cytotoxic effect

SMILES: COc1ccccc1-c1ccnc(NC2CC3CCC(C2)N3C)n1 (centres unmarked) [Compound 1]
cell viability, combination with CPT (HeLa cells; CPT fixed 5 nM + compound 1 1.85–30 µM): additive interaction | cell viability, combination with CPT (HeLa cells; compound 1 fixed 7.5 µM + CPT 1.25–20 nM): potentiated the cytotoxic activity of CPT | cell viability (antiproliferative effect) (HeLa cells): stronger antiproliferative activity | DNA damage response (γ-H2AX foci) [1]: stronger DNA damage response | survival of CDK9-depleted cells vs control cells [2]: higher survival | cell viability, combination with CPT (MCF-7 cells; MCF-7, CPT fixed 5 nM + compound 1 1.85–30 µM): additive interaction | cell viability, combination with CPT (MCF-7 cells; MCF-7, compound 1 fixed 7.5 µM + CPT 1.25–20 nM): potentiated the cytotoxic activity of CPT | cell viability (antiproliferative effect) (MCF-7 cells): stronger antiproliferative activity | IC50 (CDK9/cyclin T1; [4]): 3.51 µM | IC50 (CDK9/cyclin T1; read-out: IC50): < 50 µM | potency of compound 1 relative to compound 2 (CDK9/cyclin T1; in vitro enzymatic assays): five-fold | cell viability, combination with CPT (MDA-MB-231 cells; MDA-MB-231, CPT fixed 5 nM + compound 1 1.85–30 µM): additive interaction | cell viability, combination with CPT (MDA-MB-231 cells; MDA-MB-231, compound 1 fixed 7.5 µM + CPT 1.25–20 nM): potentiated the cytotoxic activity of CPT | cell viability (antiproliferative effect) (MDA-MB-231 cells): stronger antiproliferative activity | pRPA32 S4/8 signal (HR activity) [3]: no significant changes in pRPA32 signal

SMILES: COc1ccc(F)cc1-c1cc(N2CCN(S(=O)(=O)Cc3ccccc3)CC2)ncn1 [Compound 3]
IC50 (CDK9/cyclin T1; [4]): 28.6 µM | IC50 (CDK9/cyclin T1; read-out: IC50): < 50 µM

SMILES: Cc1nn(-c2ccc(F)cc2)c2nc(CCC(C)C)nc(N3CCN(C(=O)C4CC4c4ccccc4)CC3)c12 (centres unmarked) [Compound 4]
IC50 (CDK9/cyclin T1; [4]): 67.2 µM

SMILES: Cn1nc(C(=O)N2CCC(c3cc(O)nc(N4CCCC4)n3)C2)c2ccccc21 (centres unmarked) [Compound 9]
IC50 (CDK9/cyclin T1; [4]): > 133 µM

SMILES: COC(=O)c1c(NC(=O)c2nn3c(C(F)(F)F)cc(-c4ccc(Br)cc4)nc3c2Cl)sc2c1CCCC2 [Compound 14]
IC50 (CDK9/cyclin T1; [4]): > 133 µM
